Data published in ChEMBL document CHEMBL5653631, “A Potent and Selective ULK1 Inhibitor Suppresses Autophagy and Sensitizes Cancer Cells to Nutrient Stress” (iScience, 2018).
One block for each molecule: values may come before it.

Assays:
[1] = biological target: Mitogen-activated protein kinase 10 (Homo sapiens) (UniProt P53779); assay: Inhibition of human recombinant JNK3 at 500 nM in presence of ATP by radiometric assay relative to control
[2] = biological target: T1, Aurora kinase C (Homo sapiens) (UniProt Q9UQB9); assay: Inhibition of human recombinant AurC at 500 nM related to control ULK1
T1 sequence (whole entry): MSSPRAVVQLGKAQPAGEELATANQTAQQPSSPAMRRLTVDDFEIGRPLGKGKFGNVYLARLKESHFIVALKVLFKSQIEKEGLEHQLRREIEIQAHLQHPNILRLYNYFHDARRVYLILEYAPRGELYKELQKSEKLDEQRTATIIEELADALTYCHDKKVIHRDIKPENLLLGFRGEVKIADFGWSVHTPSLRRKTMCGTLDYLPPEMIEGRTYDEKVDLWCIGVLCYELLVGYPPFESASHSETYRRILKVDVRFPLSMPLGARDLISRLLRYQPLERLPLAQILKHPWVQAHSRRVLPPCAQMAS

[3] = biological target: NT-3 growth factor receptor (Homo sapiens) (UniProt Q16288); assay: Inhibition of human recombinant TRKC at 500 nM related to control ULK1
[4] = biological target: Angiopoietin-1 receptor (Homo sapiens) (UniProt Q02763); assay: Inhibition of human recombinant Tie2 at 500 nM related to control ULK1
[5] = biological target: T2, Testis-specific serine/threonine-protein kinase 4 (Homo sapiens) (UniProt Q6SA08); assay: Inhibition of human recombinant TSSK4 at 40 nM related to control ULK1
T2 sequence (whole entry): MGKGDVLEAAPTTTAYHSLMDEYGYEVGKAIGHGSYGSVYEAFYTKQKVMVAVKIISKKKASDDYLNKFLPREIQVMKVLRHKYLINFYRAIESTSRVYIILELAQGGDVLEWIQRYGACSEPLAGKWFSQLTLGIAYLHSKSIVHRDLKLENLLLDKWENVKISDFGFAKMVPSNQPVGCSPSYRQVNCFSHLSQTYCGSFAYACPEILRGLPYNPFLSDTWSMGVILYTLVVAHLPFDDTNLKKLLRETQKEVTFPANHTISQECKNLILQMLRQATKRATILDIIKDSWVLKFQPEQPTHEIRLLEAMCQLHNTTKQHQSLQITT

[6] = biological target: T3, Tyrosine-protein kinase ITK/TSK (Homo sapiens) (UniProt Q08881); assay: Inhibition of human recombinant ITK at 40 nM related to control ULK1
T3 sequence (whole entry): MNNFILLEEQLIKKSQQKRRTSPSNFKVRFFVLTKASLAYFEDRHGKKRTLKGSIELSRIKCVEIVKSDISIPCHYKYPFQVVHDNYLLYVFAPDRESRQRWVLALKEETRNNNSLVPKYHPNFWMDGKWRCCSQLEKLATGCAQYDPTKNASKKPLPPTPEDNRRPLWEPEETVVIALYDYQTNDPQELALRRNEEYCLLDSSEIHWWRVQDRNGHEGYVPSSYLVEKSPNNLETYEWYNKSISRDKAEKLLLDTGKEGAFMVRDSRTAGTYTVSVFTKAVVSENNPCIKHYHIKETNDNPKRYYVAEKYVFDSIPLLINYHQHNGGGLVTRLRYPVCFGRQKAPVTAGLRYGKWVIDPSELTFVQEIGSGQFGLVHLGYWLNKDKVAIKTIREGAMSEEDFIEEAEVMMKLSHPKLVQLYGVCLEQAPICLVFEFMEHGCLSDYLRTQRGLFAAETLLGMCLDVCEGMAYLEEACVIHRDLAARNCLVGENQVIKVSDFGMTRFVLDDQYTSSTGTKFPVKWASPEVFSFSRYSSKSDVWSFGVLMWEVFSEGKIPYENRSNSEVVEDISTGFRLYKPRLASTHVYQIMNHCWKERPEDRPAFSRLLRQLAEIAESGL

[7] = biological target: Serine/threonine-protein kinase PAK 3 (Homo sapiens) (UniProt O75914); assay: Inhibition of human recombinant PAK3 at 40 nM in presence of ATP by radiometric assay relative to control
[8] = biological target: Serine/threonine-protein kinase PAK 2 (Homo sapiens) (UniProt Q13177); assay: Inhibition of human recombinant PAK2 at 40 nM in presence of ATP by radiometric assay relative to control
[9] = biological target: Activin receptor type-2A (Homo sapiens) (UniProt P27037); assay: Inhibition of human recombinant ACTR2 at 15 nM related to control ULK1
[10] = biological target: Serine/threonine-protein kinase Chk2 (Homo sapiens) (UniProt O96017); assay: Inhibition of human recombinant CHK2 at 15 nM related to control ULK1
[11] = biological target: T4, Serine/threonine-protein kinase TAO3 (Homo sapiens) (UniProt Q9H2K8); assay: Inhibition of human recombinant TAO3 at 15 nM in presence of ATP by radiometric assay relative to control
T4 sequence (whole entry): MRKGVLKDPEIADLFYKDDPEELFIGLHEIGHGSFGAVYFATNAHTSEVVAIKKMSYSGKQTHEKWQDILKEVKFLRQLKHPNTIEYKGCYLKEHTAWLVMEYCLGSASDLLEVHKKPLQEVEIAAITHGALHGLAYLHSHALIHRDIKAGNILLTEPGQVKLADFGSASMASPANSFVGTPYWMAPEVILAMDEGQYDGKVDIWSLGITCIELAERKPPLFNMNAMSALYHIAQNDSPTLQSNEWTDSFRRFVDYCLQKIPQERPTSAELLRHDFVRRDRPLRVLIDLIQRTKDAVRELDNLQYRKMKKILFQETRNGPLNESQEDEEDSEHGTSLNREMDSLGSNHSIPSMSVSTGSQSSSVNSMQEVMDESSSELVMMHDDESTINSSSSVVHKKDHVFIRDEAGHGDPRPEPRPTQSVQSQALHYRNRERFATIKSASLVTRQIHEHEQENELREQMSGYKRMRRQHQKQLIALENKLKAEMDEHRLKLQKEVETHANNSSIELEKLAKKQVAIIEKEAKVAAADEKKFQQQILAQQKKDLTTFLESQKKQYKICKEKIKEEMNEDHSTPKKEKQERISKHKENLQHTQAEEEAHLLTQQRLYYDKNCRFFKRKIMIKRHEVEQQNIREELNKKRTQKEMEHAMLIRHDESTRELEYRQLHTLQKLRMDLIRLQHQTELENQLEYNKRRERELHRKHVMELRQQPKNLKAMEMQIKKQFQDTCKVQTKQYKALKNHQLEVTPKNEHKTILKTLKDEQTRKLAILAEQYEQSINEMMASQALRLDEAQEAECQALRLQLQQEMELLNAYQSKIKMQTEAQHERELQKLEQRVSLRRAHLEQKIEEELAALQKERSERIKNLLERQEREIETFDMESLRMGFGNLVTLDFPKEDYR

[12] = biological target: Transcription initiation factor TFIID subunit 1-like (Homo sapiens) (UniProt Q8IZX4); assay: Inhibition of human recombinant TAF1L at 15 nM related to control ULK1
[13] = biological target: Tyrosine-protein kinase Fer (Homo sapiens) (UniProt P16591); assay: Inhibition of human recombinant FER at 15 nM in presence of ATP by radiometric assay relative to control

inhibition [1]: 3% | fold change (FC) [2]: 0.99 | fold change (FC) [3]: 0 | fold change (FC) [4]: 0.31
SMILES: CNC(=O)c1ccccc1Oc1nc(Nc2cc(OC)c(OC)c(OC)c2)ncc1Br

fold change (FC) [5]: 0 | fold change (FC) [6]: 0 | inhibition [7]: 0% | inhibition [8]: 0%
SMILES: O=C(N[C@@H](C1CC1)C(F)(F)F)c1cc(-c2cnn3cc(-c4ccc(F)cc4)cnc23)cs1

fold change (FC) [9]: 0.05 | fold change (FC) [10]: 0 | inhibition [11]: 1% | fold change (FC) [12]: 0.49 | inhibition [13]: 0%
SMILES: CC(C)[C@H](NC(=O)c1cc(-c2cnn3cc(-c4ccc(OCCN5CCCCC5)cc4)cnc23)cs1)C(F)(F)F
